Columns and labels:
[1] = tested on: B. subtilis 168; assay: fitness (endpoint OD595 vs no drug) (fraction); higher = more growth
Outline: (§1)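 Bacterial growth was followed in 384-well plates seeded at OD595 0.01, with 30 µl per well, or 55 µl for S. pneumoniae, in TSB, LB Lennox or CY at 37 °C. OD595 was read every 30 min for 14 h, and each reading had the first reading subtracted as background. Fitness is the background-corrected optical density at entry into stationary phase divided by the robust mean of the no-drug control wells. This ratio is capped at 1.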

[2] = tested on: S. aureus DSM 20231; assay: as above
Outline: as §1

[3] = tested on: S. pneumoniae D39V; assay: as above
Outline: as §1

[4] = tested on: B. subtilis 168; assay: Bliss interaction score (quartile over a dose matrix) (fitness difference); higher = more antagonism (negative = synergy)
Outline: (§2)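 The Bliss score subtracts expected fitness, the product of the single-drug fitness values, from observed fitness. Fitness is plate-normalised OD595 at entry into stationary phase, relative to the robust no-drug mean and capped at 1, with single-drug fitness inferred from combinations. Summaries are quartiles over technical, biological and donor/recipient replicates.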

[5] = tested on: S. aureus DSM 20231; assay: as above
Outline: as §2

[6] = tested on: S. aureus Newman; assay: as above
Outline: as §2

[7] = tested on: S. pneumoniae D39V; assay: as above
Outline: as §2
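Wherever Bliss interaction score (quartile over a dose matrix) is given: first quartile when negative (synergy) and third quartile when positive (antagonism).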

CC(=O)NC[C@H]1CN(c2ccc(N3CCOCC3)c(F)c2)C(=O)O1 [Linezolid] + Cc1ncc([N+](=O)[O-])n1CCO [Metronidazole]
fitness, one replicate
Settings | partner 0.625 µg/mL | partner 1.25 µg/mL | partner 2.5 µg/mL
[1], first compound 0.0625 µg/mL | 0.86 | 0.895 | 0.875
[2], first compound 1 µg/mL | 0.0445 | 0.0462 | 0.042

Settings | fitness
[1], first compound 0.125 µg/mL, partner 0.625 µg/mL | 0.648
[1], first compound 0.125 µg/mL, partner 1.25 µg/mL | 0.607
[1], first compound 0.125 µg/mL, partner 2.5 µg/mL | 0.597
[1], first compound 0.25 µg/mL, partner 0.625 µg/mL | 0.0733
[1], first compound 0.25 µg/mL, partner 1.25 µg/mL | 0.0982
[1], first compound 0.25 µg/mL, partner 2.5 µg/mL | 0.105
[1], first compound 0.5 µg/mL, partner 0.625 µg/mL | 0.0494
[1], first compound 0.5 µg/mL, partner 1.25 µg/mL | 0.0531
[1], first compound 0.5 µg/mL, partner 2.5 µg/mL | 0.0511
[2], first compound 0.125 µg/mL, partner 0.625 µg/mL | 0.947
[2], first compound 0.125 µg/mL, partner 1.25 µg/mL | 0.94
[2], first compound 0.125 µg/mL, partner 2.5 µg/mL | 0.942
[2], first compound 0.25 µg/mL, partner 0.625 µg/mL | 0.621
[2], first compound 0.25 µg/mL, partner 1.25 µg/mL | 0.723
[3], first compound 0.105 µg/mL, partner 1.25 µg/mL | 0.866
[3], first compound 0.105 µg/mL, partner 2.5 µg/mL | 0.877
[3], first compound 0.105 µg/mL, partner 5 µg/mL | 0.841
[3], first compound 0.2 µg/mL, partner 1.073 µg/mL | 0.832
[3], first compound 0.2 µg/mL, partner 2.145 µg/mL | 0.804
[3], first compound 0.2 µg/mL, partner 4.29 µg/mL | 0.817
[3], first compound 0.21 µg/mL, partner 1.25 µg/mL | 0.776
[3], first compound 0.21 µg/mL, partner 2.5 µg/mL | 0.78
[3], first compound 0.21 µg/mL, partner 5 µg/mL | 0.753
[3], first compound 0.4 µg/mL, partner 1.073 µg/mL | 0.741
[3], first compound 0.4 µg/mL, partner 2.145 µg/mL | 0.77
[3], first compound 0.4 µg/mL, partner 4.29 µg/mL | 0.714
[3], first compound 0.42 µg/mL, partner 1.25 µg/mL | 0.663
[3], first compound 0.42 µg/mL, partner 2.5 µg/mL | 0.646
[3], first compound 0.42 µg/mL, partner 5 µg/mL | 0.63
[3], first compound 0.8 µg/mL, partner 2.145 µg/mL | 0.445
[3], first compound 0.8 µg/mL, partner 4.29 µg/mL | 0.424

Settings | Bliss interaction score
[4] | 0.103
[5] | 0.111
[6] | 0.0844
[7] | 0.143

CC(=O)NC[C@H]1CN(c2ccc(N3CCOCC3)c(F)c2)C(=O)O1 [Linezolid] + Cc1onc(-c2ccccc2)c1C(=O)N[C@@H]1C(=O)N2[C@@H]1SC(C)(C)[C@@H]2C(=O)O [Oxacillin]
one replicate
Settings | fitness
[1], first compound 0.0625 µg/mL, partner 0.0078 µg/mL | 0.913
[1], first compound 0.0625 µg/mL, partner 0.0155 µg/mL | 0.809
[1], first compound 0.0625 µg/mL, partner 0.031 µg/mL | 0.81
[1], first compound 0.125 µg/mL, partner 0.0078 µg/mL | 0.594
[1], first compound 0.125 µg/mL, partner 0.0155 µg/mL | 0.553
[1], first compound 0.125 µg/mL, partner 0.031 µg/mL | 0.529
[1], first compound 0.125 µg/mL, partner 0.075 µg/mL | 0.611
[1], first compound 0.125 µg/mL, partner 0.15 µg/mL | 0.0387
[1], first compound 0.125 µg/mL, partner 0.3 µg/mL | 0.0501
[1], first compound 0.25 µg/mL, partner 0.0078 µg/mL | 0.0705
[1], first compound 0.25 µg/mL, partner 0.0155 µg/mL | 0.0604
[1], first compound 0.25 µg/mL, partner 0.031 µg/mL | 0.0611
[1], first compound 0.25 µg/mL, partner 0.075 µg/mL | 0.241
[1], first compound 0.25 µg/mL, partner 0.15 µg/mL | 0.0531
[1], first compound 0.25 µg/mL, partner 0.3 µg/mL | 0.0536
[1], first compound 0.5 µg/mL, partner 0.075 µg/mL | 0.0447
[1], first compound 0.5 µg/mL, partner 0.15 µg/mL | 0.0563
[1], first compound 0.5 µg/mL, partner 0.3 µg/mL | 0.0594
[2], first compound 1 µg/mL, partner 0.0156 µg/mL | 0.0486
[2], first compound 1 µg/mL, partner 0.0312 µg/mL | 0.0427
[2], first compound 1 µg/mL, partner 0.0625 µg/mL | 0.0557

Settings | fitness
[1], first compound 0.125 µg/mL, partner 0.002 µg/mL | 0.567
[1], first compound 0.125 µg/mL, partner 0.004 µg/mL | 0.513
[1], first compound 0.125 µg/mL, partner 0.008 µg/mL | 0.515
[1], first compound 0.25 µg/mL, partner 0.002 µg/mL | 0.112
[1], first compound 0.25 µg/mL, partner 0.004 µg/mL | 0.108
[1], first compound 0.25 µg/mL, partner 0.008 µg/mL | 0.102
[1], first compound 0.5 µg/mL, partner 0.002 µg/mL | 0.0413
[1], first compound 0.5 µg/mL, partner 0.004 µg/mL | 0.0471
[1], first compound 0.5 µg/mL, partner 0.008 µg/mL | 0.0549
[2], first compound 0.125 µg/mL, partner 0.0156 µg/mL | 0.791
[2], first compound 0.125 µg/mL, partner 0.0312 µg/mL | 0.665
[2], first compound 0.125 µg/mL, partner 0.0625 µg/mL | 0.52
[2], first compound 0.25 µg/mL, partner 0.0156 µg/mL | 0.52
[2], first compound 0.25 µg/mL, partner 0.0312 µg/mL | 0.501
[2], first compound 0.25 µg/mL, partner 0.0625 µg/mL | 0.415
[2], first compound 0.5 µg/mL, partner 0.0156 µg/mL | 0.21
[2], first compound 0.5 µg/mL, partner 0.0312 µg/mL | 0.188
[2], first compound 0.5 µg/mL, partner 0.0625 µg/mL | 0.156
[3], first compound 0.105 µg/mL, partner 0.01 µg/mL | 0.917
[3], first compound 0.105 µg/mL, partner 0.02 µg/mL | 0.872
[3], first compound 0.105 µg/mL, partner 0.04 µg/mL | 0.42
[3], first compound 0.2 µg/mL, partner 0.01 µg/mL | 0.78
[3], first compound 0.2 µg/mL, partner 0.02 µg/mL | 0.764
[3], first compound 0.2 µg/mL, partner 0.04 µg/mL | 0.594
[3], first compound 0.21 µg/mL, partner 0.01 µg/mL | 0.791
[3], first compound 0.21 µg/mL, partner 0.02 µg/mL | 0.704
[3], first compound 0.21 µg/mL, partner 0.04 µg/mL | 0.382
[3], first compound 0.4 µg/mL, partner 0.01 µg/mL | 0.623
[3], first compound 0.4 µg/mL, partner 0.02 µg/mL | 0.609
[3], first compound 0.4 µg/mL, partner 0.04 µg/mL | 0.431
[3], first compound 0.42 µg/mL, partner 0.01 µg/mL | 0.63
[3], first compound 0.42 µg/mL, partner 0.02 µg/mL | 0.564
[3], first compound 0.42 µg/mL, partner 0.04 µg/mL | 0.175
[3], first compound 0.8 µg/mL, partner 0.04 µg/mL | 0.218

Settings | Bliss interaction score
[4] | 0.0403
[5] | -0.0365
[6] | -0.0461
[7] | 0.136

CC(=O)NC[C@H]1CN(c2ccc(N3CCOCC3)c(F)c2)C(=O)O1 [Linezolid] + Cn1nnc(-c2ccc(-c3ccc(N4C[C@H](CO)OC4=O)cc3F)cn2)n1 [Tedizolid]
fitness
Settings | partner 0.03125 µg/mL | partner 0.0625 µg/mL | partner 0.125 µg/mL | partner 0.25 µg/mL | partner 0.5 µg/mL
[2], first compound 0.125 µg/mL | – | 0.689 | 0.501 | 0.257 | –
[2], first compound 0.25 µg/mL | – | 0.456 | 0.26 | 0.141 | –
[2], first compound 0.5 µg/mL | – | 0.119 | 0.0888 | 0.0646 | –
[3], first compound 0.105 µg/mL | – | – | 0.682 | 0.441 | 0.141
[3], first compound 0.2 µg/mL | 0.819 | 0.825 | 0.723 | – | –
[3], first compound 0.21 µg/mL | – | – | 0.58 | 0.286 | 0.0818
[3], first compound 0.4 µg/mL | 0.73 | 0.724 | 0.633 | – | –
[3], first compound 0.42 µg/mL | – | – | 0.249 | 0.107 | 0.0451
[3], first compound 0.8 µg/mL | 0.549 | 0.578 | 0.465 | – | –

[2], first compound 1 µg/mL, one replicate
Settings | fitness
partner 0.0625 µg/mL | 0.0257
partner 0.125 µg/mL | 0.0309
partner 0.25 µg/mL | 0.0295

Settings | Bliss interaction score
[4] | -0.188
[5] | -0.185
[6] | -0.153
[7] | -0.148

Source: the supplement of paper PMC10627819
